The nature of the series: Steady-state pharmacokinetic interaction study of the Compound and lopinavir/r (LPV/r). The format is in vivo, human. Particulars: healthy volunteers.
Setting [1] is: the Compound 125 mg QD + LPV/r 400/100 mg BID vs the Compound/r 125/100 mg QD (coadministration:alone), 14-day periods, n = 14.

Take `Cc1cccc(C)c1OCC(=O)N[C@@H](Cc1ccccc1)[C@@H](O)C[C@H](Cc1ccccc1)NC(=O)[C@H](C(C)C)N1CCCNC1=O` [LPV, (2S)—N-[(2S,4S,5S)-5-{[2-(2,6-dimethyl-phenoxy)acetyl]amino}-4-hydroxy-1,6-diphenyl-hexan-2-yl]-3-methyl-2-(2-oxo-1,3-diazinan-1-yl)butanamide, reference compound]: under “steady state”, the “LPV trough concentrations when coadministered with the Compound” value is “maintained above recommended target troughs” and the “exposures when coadministered with the Compound” value was “unaltered”.

Take `CC(C)c1nc(CN(C)C(=O)NC(C(=O)NC(Cc2ccccc2)CC(O)C(Cc2ccccc2)NC(=O)OCc2cncs2)C(C)C)cs1` (stereo not shown) [RTV, 1,3-thiazol-5-ylmethyl[3-hydroxy-5-[3-methyl-2-[methyl-[(2-propan-2-yl-1,3-thiazol-4-yl)methyl]carbamoyl]amino-butanoyl]amino-1,6-diphenyl-hexan-2-yl]aminoformate, reference compound]: the “exposures when coadministered with the Compound” value (steady state) is given as “unaltered”.

Take `COc1cc2c(cc1Cc1cccc(Cl)c1F)c(=O)c(C(=O)O)cn2[C@H](CO)C(C)C` [the Compound, 6-(3-chloro-2-fluorobenzyl)-1-[(2S)-1-hydroxy-3-methylbutan-2-yl]-7-methoxy-4-oxo-1,4-dihydroquinoline-3-carboxylic acid]: for the setting “steady state”, the “Compound exposures upon coadministration with LPV/r” value was “substantially elevated”. Also, under setting [1], the “AUCtau % GMR (90% CI)” value stood at 175%, the “Cmax % GMR (90% CI)” value is 152% and the “Ctau % GMR (90% CI)” value was determined as 238%.
